Laboratory results: PubChem BioAssay (NCI)
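Briefly, cells in 96-well plates were exposed to five compound concentrations for 48 h, and endpoints were estimated by linear interpolation. GI50 marks 50% less growth. TGI: concentration producing complete growth inhibition.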

Tests used:
Assay in all cases: NCI tumour cell line growth inhibition, 48 h
RPMI-8226 leukemia = test system: RPMI-8226 leukemia
HOP-62 NSCLC = test system: HOP-62 NSCLC
KM12 colon = test system: KM12 colon
EKVX NSCLC = test system: EKVX NSCLC
MOLT-4 leukemia = test system: MOLT-4 leukemia
ACHN renal = test system: ACHN renal
SK-MEL-2 melanoma = test system: SK-MEL-2 melanoma
SK-OV-3 ovarian = test system: SK-OV-3 ovarian
U251 CNS = test system: U251 CNS
T-47D breast = test system: T-47D breast
NCI-H522 lung = test system: NCI-H522 lung
A549 NSCLC = test system: A549 NSCLC
SR leukemia = test system: SR leukemia
COLO 205 colon = test system: COLO 205 colon
CAKI-1 renal = test system: CAKI-1 renal
HCC-2998 colon = test system: HCC-2998 colon
IGROV1 ovarian = test system: IGROV1 ovarian
SNB-19 CNS = test system: SNB-19 CNS
SN12C renal = test system: SN12C renal
786-0 renal = test system: 786-0 renal
SK-MEL-28 melanoma = test system: SK-MEL-28 melanoma
NCI-H226 lung = test system: NCI-H226 lung
RXF 393 renal = test system: RXF 393 renal
PC-3 prostate = test system: PC-3 prostate
SF-295 CNS = test system: SF-295 CNS
HT29 colon = test system: HT29 colon
DU-145 prostate = test system: DU-145 prostate

Cc1ccc(C(=O)Nc2ccc(CNCCN3CCNCC3)c(C(F)(F)F)c2)cc1C#Cc1cnc2cccnn12
GI50 (RPMI-8226 leukemia): 2180 nM
TGI (RPMI-8226 leukemia): 4910 nM
GI50 (HOP-62 NSCLC): 1860 nM
TGI (HOP-62 NSCLC): 3630 nM
GI50 (KM12 colon): 1780 nM
TGI (KM12 colon): 3350 nM
GI50 (EKVX NSCLC): 2120 nM
TGI (EKVX NSCLC): 4130 nM
GI50 (MOLT-4 leukemia): 1680 nM
TGI (MOLT-4 leukemia): 4470 nM
GI50 (ACHN renal): 1820 nM
TGI (ACHN renal): 3270 nM
GI50 (SK-MEL-2 melanoma): 1810 nM
TGI (SK-MEL-2 melanoma): 3680 nM
GI50 (SK-OV-3 ovarian): 2130 nM
TGI (SK-OV-3 ovarian): 3950 nM
GI50 (U251 CNS): 1720 nM
TGI (U251 CNS): 3210 nM
GI50 (T-47D breast): 1940 nM
TGI (T-47D breast): 4090 nM
GI50 (NCI-H522 lung): 1780 nM
TGI (NCI-H522 lung): 3480 nM
GI50 (A549 NSCLC): 1920 nM
TGI (A549 NSCLC): 3730 nM
GI50 (SR leukemia): 2470 nM
TGI (SR leukemia): > 100000 nM
GI50 (COLO 205 colon): 1930 nM
TGI (COLO 205 colon): 3870 nM
GI50 (CAKI-1 renal): 1790 nM
TGI (CAKI-1 renal): 3370 nM
GI50 (HCC-2998 colon): 1970 nM
TGI (HCC-2998 colon): 3620 nM
GI50 (IGROV1 ovarian): 1850 nM
TGI (IGROV1 ovarian): 3490 nM
GI50 (SNB-19 CNS): 1960 nM
TGI (SNB-19 CNS): 3540 nM
GI50 (SN12C renal): 1770 nM
TGI (SN12C renal): 3380 nM
GI50 (786-0 renal): 2170 nM
TGI (786-0 renal): 3890 nM
GI50 (SK-MEL-28 melanoma): 1730 nM
TGI (SK-MEL-28 melanoma): 3190 nM
GI50 (NCI-H226 lung): 1840 nM
TGI (NCI-H226 lung): 3740 nM
GI50 (RXF 393 renal): 1800 nM
TGI (RXF 393 renal): 3240 nM
GI50 (PC-3 prostate): 1860 nM
TGI (PC-3 prostate): 3400 nM
GI50 (SF-295 CNS): 1780 nM
TGI (SF-295 CNS): 3310 nM
GI50 (HT29 colon): 1390 nM
TGI (HT29 colon): 2780 nM
GI50 (DU-145 prostate): 1890 nM
